Results on three compounds are retold here after paper PMC5137160, “Optical imaging of MMP-12 active form in inflammation and aneurysm” (Scientific Reports, 2016).

For one experiment, the target named is T1, hMMP-1 (Homo sapiens, UniProt P03956).
T1 construct: purchased R&D Systems (Minneapolis, MN)
T1 sequence (P03956 100-469): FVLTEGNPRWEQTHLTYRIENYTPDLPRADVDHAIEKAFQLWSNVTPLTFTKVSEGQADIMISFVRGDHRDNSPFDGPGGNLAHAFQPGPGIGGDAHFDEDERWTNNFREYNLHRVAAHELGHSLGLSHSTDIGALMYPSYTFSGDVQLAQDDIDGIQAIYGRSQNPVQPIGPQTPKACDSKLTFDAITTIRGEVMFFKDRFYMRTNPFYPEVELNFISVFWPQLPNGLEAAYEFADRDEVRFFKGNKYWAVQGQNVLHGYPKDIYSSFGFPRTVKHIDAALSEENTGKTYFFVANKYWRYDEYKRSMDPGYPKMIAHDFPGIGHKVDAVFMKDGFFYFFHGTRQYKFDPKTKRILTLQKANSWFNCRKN
In words: MMP inhibition assay (Ki). Type of experiment: biochemical. On the procedure:
(§1) Human MMP-8, -9, -12 and -13 were produced in the laboratory. Other MMPs were purchased from R&D Systems (Minneapolis, MN). MMP inhibition assays were carried out as previously described. Pro-MMPs were pre-activated by p-aminophenylmercuric acetate following the method described by R&D Systems. Titration experiments were carried out to determine active enzyme concentration for each MMP prior to the assay. For each probe, the percentage of inhibition was determined from five different concentrations in triplicates, chosen to reach a range of 20–80% inhibition. Ki values were determined using the method proposed by Horovitz and Leviski[45].

The target of another experiment is T2, hMMP-10 (Homo sapiens, UniProt P09238).
T2 construct: purchased R&D Systems (Minneapolis, MN)
T2 sequence (P09238 99-476): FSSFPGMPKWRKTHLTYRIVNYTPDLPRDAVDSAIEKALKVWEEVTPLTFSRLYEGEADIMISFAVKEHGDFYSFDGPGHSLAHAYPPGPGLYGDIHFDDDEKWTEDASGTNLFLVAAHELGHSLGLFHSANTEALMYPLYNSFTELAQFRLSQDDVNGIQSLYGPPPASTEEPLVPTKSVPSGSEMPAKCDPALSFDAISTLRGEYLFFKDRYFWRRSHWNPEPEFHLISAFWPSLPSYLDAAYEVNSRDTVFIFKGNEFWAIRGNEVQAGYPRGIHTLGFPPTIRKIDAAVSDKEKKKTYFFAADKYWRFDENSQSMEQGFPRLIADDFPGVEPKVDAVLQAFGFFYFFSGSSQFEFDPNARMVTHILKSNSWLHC
Put plainly: MMP inhibition assay (Ki). In kind it is biochemical. On the procedure:
as §1

A further experiment addresses T3, hMMP-13 (Homo sapiens, UniProt P45452).
T3 construct: made in house
Put plainly: MMP inhibition assay (Ki). Type of experiment: biochemical. On the procedure: as §1

A further experiment concerns the target T4, hMMP-14 (Homo sapiens, UniProt P50281).
T4 construct: purchased R&D Systems (Minneapolis, MN)
Put plainly: MMP inhibition assay (Ki). In kind it is biochemical. On the procedure:
as §1

The target in a further experiment is T5, hMMP-2 (Homo sapiens, UniProt P08253).
T5 construct: purchased R&D Systems (Minneapolis, MN)
T5 sequence (P08253 110-660): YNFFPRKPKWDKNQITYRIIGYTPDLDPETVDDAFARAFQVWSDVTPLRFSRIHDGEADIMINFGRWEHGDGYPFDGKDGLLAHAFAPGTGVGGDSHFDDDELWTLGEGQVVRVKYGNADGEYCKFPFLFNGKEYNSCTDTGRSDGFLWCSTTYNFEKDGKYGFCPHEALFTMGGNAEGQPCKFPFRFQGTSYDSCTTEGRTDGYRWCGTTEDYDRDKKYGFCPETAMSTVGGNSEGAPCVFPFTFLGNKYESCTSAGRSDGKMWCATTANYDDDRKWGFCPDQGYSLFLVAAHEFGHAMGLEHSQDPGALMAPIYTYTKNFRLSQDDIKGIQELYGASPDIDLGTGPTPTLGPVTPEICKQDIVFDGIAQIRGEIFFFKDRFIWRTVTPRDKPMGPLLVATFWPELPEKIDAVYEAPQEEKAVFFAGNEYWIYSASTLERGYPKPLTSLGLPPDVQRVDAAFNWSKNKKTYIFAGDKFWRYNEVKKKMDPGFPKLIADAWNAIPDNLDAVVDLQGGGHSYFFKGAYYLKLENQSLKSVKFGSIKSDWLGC
In words: MMP inhibition assay (Ki). In kind it is biochemical. On the procedure: as §1

The next experiment addresses T6, hMMP-3 (Homo sapiens, UniProt P08254).
T6 construct: purchased R&D Systems (Minneapolis, MN)
Put plainly: MMP inhibition assay (Ki). In kind it is biochemical. On the procedure: as §1

In a further experiment the target is T7, hMMP-7 (Homo sapiens, UniProt P09237).
T7 construct: purchased R&D Systems (Minneapolis, MN)
T7 sequence (P09237 95-267): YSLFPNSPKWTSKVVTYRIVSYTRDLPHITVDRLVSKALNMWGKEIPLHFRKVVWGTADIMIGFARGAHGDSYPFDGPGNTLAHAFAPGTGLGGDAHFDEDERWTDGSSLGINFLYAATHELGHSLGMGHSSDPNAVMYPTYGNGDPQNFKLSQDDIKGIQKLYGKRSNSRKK
Put plainly: MMP inhibition assay (Ki). Type of experiment: biochemical. On the procedure:
as §1

The target in a further experiment is T8, hMMP-8 (Homo sapiens, UniProt P22894).
T8 construct: made in house
T8 sequence (P22894 101-467): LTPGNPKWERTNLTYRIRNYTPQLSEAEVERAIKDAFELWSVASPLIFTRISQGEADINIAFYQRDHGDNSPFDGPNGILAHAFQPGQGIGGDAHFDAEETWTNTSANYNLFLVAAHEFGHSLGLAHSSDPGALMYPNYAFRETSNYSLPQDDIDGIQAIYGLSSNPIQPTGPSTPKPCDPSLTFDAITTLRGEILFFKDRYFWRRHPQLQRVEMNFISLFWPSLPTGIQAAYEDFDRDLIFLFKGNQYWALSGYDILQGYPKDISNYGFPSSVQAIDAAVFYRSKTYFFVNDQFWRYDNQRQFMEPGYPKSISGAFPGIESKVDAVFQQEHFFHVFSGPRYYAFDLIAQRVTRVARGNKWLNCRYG
In words: MMP inhibition assay (Ki). Type of experiment: biochemical. On the procedure:
as §1

In another experiment the target is T9, hMMP-9 (Homo sapiens, UniProt P14780).
T9 construct: made in house
T9 sequence (P14780 94-707): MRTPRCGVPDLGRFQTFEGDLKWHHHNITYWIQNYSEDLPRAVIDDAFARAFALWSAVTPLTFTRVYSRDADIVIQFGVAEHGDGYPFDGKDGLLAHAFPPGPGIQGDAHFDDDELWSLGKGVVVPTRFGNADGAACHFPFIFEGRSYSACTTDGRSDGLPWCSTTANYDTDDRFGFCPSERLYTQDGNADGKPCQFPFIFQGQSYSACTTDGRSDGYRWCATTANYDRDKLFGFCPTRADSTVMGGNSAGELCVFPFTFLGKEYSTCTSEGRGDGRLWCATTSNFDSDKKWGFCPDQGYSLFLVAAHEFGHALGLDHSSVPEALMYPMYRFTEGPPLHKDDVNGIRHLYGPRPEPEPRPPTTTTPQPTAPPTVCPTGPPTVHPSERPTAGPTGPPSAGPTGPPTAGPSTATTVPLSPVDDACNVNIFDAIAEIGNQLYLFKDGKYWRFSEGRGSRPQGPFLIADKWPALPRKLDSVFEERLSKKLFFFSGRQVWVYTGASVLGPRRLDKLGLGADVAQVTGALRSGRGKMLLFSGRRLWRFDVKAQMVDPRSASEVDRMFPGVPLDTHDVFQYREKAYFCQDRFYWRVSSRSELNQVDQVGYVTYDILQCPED
In words: MMP inhibition assay (Ki). Type of experiment: biochemical. On the procedure: as §1

A further experiment addresses hMMP-12. In words: MMP inhibition assay (Ki). In kind it is biochemical, human. On the procedure: as §1
A further experiment addresses TACE (Homo sapiens, UniProt P78536). Put plainly: Metalloprotease inhibition assay (Ki). Type of experiment: biochemical.
In a further experiment the target is T10, ADAMTS-5 (Homo sapiens, UniProt Q9UNA0).
T10 sequence (Q9UNA0 262-930): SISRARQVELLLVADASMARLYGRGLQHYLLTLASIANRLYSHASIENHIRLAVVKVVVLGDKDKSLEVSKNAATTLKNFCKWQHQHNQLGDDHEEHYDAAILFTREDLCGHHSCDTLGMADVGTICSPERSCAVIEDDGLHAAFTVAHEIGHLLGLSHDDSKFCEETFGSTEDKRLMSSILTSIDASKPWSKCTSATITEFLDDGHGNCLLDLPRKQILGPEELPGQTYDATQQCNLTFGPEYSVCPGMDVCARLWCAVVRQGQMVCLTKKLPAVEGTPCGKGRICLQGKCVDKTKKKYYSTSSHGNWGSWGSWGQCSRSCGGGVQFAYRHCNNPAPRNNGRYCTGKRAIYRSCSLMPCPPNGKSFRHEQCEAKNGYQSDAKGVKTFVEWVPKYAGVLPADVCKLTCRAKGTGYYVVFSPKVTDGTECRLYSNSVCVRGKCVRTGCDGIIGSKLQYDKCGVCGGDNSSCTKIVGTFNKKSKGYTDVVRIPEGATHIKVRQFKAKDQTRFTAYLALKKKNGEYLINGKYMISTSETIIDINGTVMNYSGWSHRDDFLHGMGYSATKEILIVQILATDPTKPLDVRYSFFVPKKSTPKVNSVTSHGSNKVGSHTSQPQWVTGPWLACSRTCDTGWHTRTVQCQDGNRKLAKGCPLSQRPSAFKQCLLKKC
In words: Metalloprotease inhibition assay (Ki). In kind it is biochemical.

In experiment [1] the test system is MMP-12. Also on record: method as in PMID 21212406. As to conditions: high fat-fed apoE-/- mice ref 3; cited from earlier work.
The target in experiment [2] is T11, MMP-12 (Mus musculus, UniProt P34960).
T11 construct: from tissue; host or cells: CaCl2-induced aneurysmal left carotid artery of apoE-deficient mice (in vivo imaging and cryostat sections)
T11 sequence (P34960 110-473): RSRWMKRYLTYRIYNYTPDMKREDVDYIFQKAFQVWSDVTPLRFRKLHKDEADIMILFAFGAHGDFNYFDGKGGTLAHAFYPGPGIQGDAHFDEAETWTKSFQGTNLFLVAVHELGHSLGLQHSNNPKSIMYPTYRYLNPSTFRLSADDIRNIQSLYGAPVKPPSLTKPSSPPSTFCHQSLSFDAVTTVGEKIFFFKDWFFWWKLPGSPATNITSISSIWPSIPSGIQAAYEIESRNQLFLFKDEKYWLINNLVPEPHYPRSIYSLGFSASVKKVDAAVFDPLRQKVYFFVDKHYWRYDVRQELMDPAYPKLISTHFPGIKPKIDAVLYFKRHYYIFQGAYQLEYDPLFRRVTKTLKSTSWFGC
In words: Co-immunostaining of carotid artery sections with probe, fluorescence microscopy. Also on record: species or system mice. On the procedure:
Hematoxylin and eosin (H&E) staining and immunostaining of tissues were performed according to standard protocols on 5-μm-thick cryostat sections. For immunostaining, primary antibodies included anti-MMP-12 (sc-30072, Santa Cruz Biotechnology, Dallas, TX), anti-CD68 (AbD serotec, Raleigh, NC), anti-F4/80 (Cedarlane, Burlington, NC) and anti-CD31 (BD Pharmingen, San Jose, CA). Isotype-matched antibodies were used as controls. For co-immunostaining, tissue sections were fixed with acetone, and stained with the antibody followed by probe 2. Nuclei were stained with DAPI using ProLong® Gold Antifade Mountant with DAPI (Molecular Probes, Eugene, OR). The slides were photographed using a Spot RT3 camera (Diagnostic Instruments, Sterling Heights, MI) and a Zeiss Axiophot fluorescence microscope (Carl Zeiss Microscopy GmbH, Jena, Germany).

Molecules are shown by their SMILES. A value given as a limit tells only on which side of the number the result lay.

T6 sequence (P08254 100-477): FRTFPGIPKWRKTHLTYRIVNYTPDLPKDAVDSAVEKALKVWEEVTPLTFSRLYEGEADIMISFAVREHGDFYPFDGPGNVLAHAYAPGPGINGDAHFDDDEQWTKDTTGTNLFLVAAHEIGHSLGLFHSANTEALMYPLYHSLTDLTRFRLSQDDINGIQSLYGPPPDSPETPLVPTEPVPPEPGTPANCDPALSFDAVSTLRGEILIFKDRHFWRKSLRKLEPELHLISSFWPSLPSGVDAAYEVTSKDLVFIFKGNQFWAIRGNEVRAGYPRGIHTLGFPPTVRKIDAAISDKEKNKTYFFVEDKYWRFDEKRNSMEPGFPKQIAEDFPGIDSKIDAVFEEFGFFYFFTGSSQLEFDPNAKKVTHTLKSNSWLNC
Sequence of TACE (P78536 215-824): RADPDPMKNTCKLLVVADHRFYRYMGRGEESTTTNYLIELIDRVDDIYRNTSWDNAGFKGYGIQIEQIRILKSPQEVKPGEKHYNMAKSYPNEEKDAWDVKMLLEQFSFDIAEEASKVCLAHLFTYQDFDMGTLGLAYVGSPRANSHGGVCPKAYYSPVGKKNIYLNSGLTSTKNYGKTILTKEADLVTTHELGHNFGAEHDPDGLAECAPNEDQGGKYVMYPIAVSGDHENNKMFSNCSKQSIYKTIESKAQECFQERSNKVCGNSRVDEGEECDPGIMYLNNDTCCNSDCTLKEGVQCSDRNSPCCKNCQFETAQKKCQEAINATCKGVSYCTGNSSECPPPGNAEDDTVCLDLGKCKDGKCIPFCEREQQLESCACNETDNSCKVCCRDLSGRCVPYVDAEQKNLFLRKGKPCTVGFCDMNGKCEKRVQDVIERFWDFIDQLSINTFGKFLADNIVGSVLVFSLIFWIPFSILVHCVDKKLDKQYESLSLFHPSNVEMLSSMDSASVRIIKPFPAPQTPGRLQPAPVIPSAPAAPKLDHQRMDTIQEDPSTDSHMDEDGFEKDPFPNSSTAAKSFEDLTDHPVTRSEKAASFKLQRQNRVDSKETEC

Take `NC(=O)[C@H](CCC(=O)O)NC(=O)[C@H](CCC(=O)O)NC(=O)[C@H](Cc1cc(-c2ccc(-c3cccc(Cl)c3)cc2)no1)CP(=O)(O)c1ccc(Br)cc1` [RXP470.1, reference compound]: the Ki (as a rule, a measure of affinity in units of concentration, obtained from inhibition or displacement) is above 10000 nM on hMMP-1; 17 ± 20 nM on hMMP-10; 11 ± 10 nM on hMMP-13; 150 ± 21 nM on hMMP-14; 52 ± 4 nM on hMMP-2; 80 ± 2 nM on hMMP-3. In addition, the Ki at hMMP-7 was 518 ± 40 nM; on hMMP-8, 120 ± 40 nM; at hMMP-9, 170 ± 50 nM; at hMMP-12, 0.26 nM; at TACE it was above 10000 nM; on ADAMTS-5 it was 6100 ± 100 nM. For the same compound, the “effect on atherosclerotic plaque” value with MMP-12 [1] is “reduces atherosclerotic plaque area and promotes a fibrous plaque phenotype”.
`CC[N+]1=C(/C=C/C=C/C=C2/N(CCCCCC(=O)NCCCOCCOCCOCCCNC(=O)[C@H](CCC(=O)O)NC(=O)[C@H](CCC(=O)O)NC(=O)[C@H](Cc3cc(-c4ccc(-c5cccc(Cl)c5)cc4)no3)CP(=O)(O)c3ccc(Br)cc3)c3ccc4c(S(=O)(=O)[O-])cc(S(=O)(=O)O)cc4c3C2(C)C)C(C)(C)c2c1ccc1c(S(=O)(=O)O)cc(S(=O)(=O)O)cc21` [probe 1]: the Ki at hMMP-1 is above 10000 nM; at hMMP-10, 71 ± 50 nM; at hMMP-13, 74 ± 70 nM; at hMMP-14, 1130 ± 61 nM; on hMMP-2 it was 973 ± 63 nM; on hMMP-3, 31 ± 2 nM. The Ki was 1623 ± 13 nM on hMMP-7; 2070 ± 22 nM at hMMP-8; 4167 ± 41 nM at hMMP-9; 0.9 nM at hMMP-12; above 10000 nM on TACE; 1490 ± 129 nM on ADAMTS-5. For the same compound, the “loss of potency toward MMP-10 compared with RXP470.1” value at hMMP-10 (relative to RXP470.1) is “less than ten times”. On hMMP-13 (relative to RXP470.1), the “loss of potency toward MMP-13 compared with RXP470.1” value is “less than ten times”.
As for `CC[N+]1=C(/C=C/C=C2/N(CCCCCC(=O)NCCCOCCOCCOCCCNC(=O)[C@H](CCC(=O)O)NC(=O)[C@H](CCC(=O)O)NC(=O)[C@H](Cc3cc(-c4ccc(-c5cccc(Cl)c5)cc4)no3)CP(=O)(O)c3ccc(Br)cc3)c3ccc(S(=O)(=O)[O-])cc3C2(C)C)C(C)(C)c2cc(S(=O)(=O)O)ccc21` [probe 2], the Ki on hMMP-1 is 7212 ± 66 nM; on hMMP-13, 136 ± 15 nM; on hMMP-14 it was 802 ± 58 nM; on hMMP-2, 1070 ± 18 nM; at hMMP-3 it was 188 ± 22 nM; on hMMP-7 it was 1850 ± 71 nM. In addition, the Ki on hMMP-8 is 1440 ± 35 nM; at hMMP-9, 8760 ± 50 nM; at hMMP-12, 6.1 ± 0.1 nM; at TACE it was above 10000 nM; at ADAMTS-5 it was above 10000 nM. Also, on hMMP-9 (factor relative to RXP470.1), the “loss of potency (drop in affinity) toward MMP-9 compared with RXP470.1” value is recorded as 50. Also, in the experiment on hMMP-12 (relative to probe 1), the “difference in potency towards MMP-12, factor relative to probe 1” value is recorded as 7. Also, at MMP-12 [2] (aneurysmal carotid artery sections), the “probe co-localization with F4/80 positive cells” value is reported as “co-localized”. The “probe signal co-localization with MMP-12” value at MMP-12 [2] (aneurysmal left carotid artery sections) was “partially co-localized”.
